Earlier results as cited in patent US8742076B2, “Nemorubicin metabolite and analog reagents, antibody-drug conjugates and methods” (Genentech, Inc., priority 2008, dated 2014).

Tests used:
[1] = comparison with nemorubicin and doxorubicin

COc1cccc2c1C(=O)c1c(O)c3c(c(O)c1C2=O)C[C@@](O)(C(=O)CO)C[C@@H]3O[C@H]1C[C@H]2[C@H](O[C@@H]3[C@@H](OC)OCCN32)[C@H](C)O1 [PNU (159682), 3′-deamino-3″,4′-anhydro-[2″(S)-methoxy-3″(R)-oxy-4″-morpholinyl]doxorubicin]
efficacy in in vivo tumor models (tumor models): effective
cytotoxicity in vitro compared with nemorubicin and doxorubicin [1]: remarkably more cytotoxic than nemorubicin and doxorubicin
